In US20250340519A1, “RADIOLABELLED COMPOUND” (OXFORD UNIVERSITY INNOVATION LIMITED, priority 2018, published 2025):

Columns and labels:
U87MG and U251MG cells = test: Blocking of 18F-olaparib uptake in U87MG and U251MG cells; assay type: cell-based; conditions: 100 μM cold olaparib vs 1 μM ^18F-olaparib
Description: Olaparib (1) was used at various concentrations to block 1 μM of the radiolabelled isotopologue, ^18F-olparib (compound 3); see FIG. 26.

[1] = tested on: U87MG and U251MG xenografts; test: 18F-olaparib biodistribution in U87MG and U251MG tumour xenograft mouse models; assay type: in vivo, Balb/c nude mice; conditions: 20 μg cold olaparib prior to 1 μg ^18F-olaparib, tail vein
Description: U87MG and U251MG xenografts were generated in Balb/c nude mice. The xenograft models were administered various doses (0.5, 1.0, 4.0, and 8.0 μg) of ^18F-olaparib by tail vein injection. At 60-120 min post-injection, mice were sacrificed and organs were collected for biodistribution; see FIGS. 27(a) and (b), and FIG. 28(a). […] We predicted that the uptake for the U251MG xenografts would be greater, but in vivo there is no significant difference between the % ID/g for the U251MG or U87MG xenograft tumours.
A 20-fold excess of cold olaparib was injected via tail vein 60 m prior to 1 μg of ^18F-olaparib via tail vein. The mice were sacrificed at 60-120 min post-injection and organs were harvested.

PANC-1 cells = test: Cell uptake of [18F]olaparib in PANC-1 cells; assay type: cell-based, human; conditions: excess of unlabelled inhibitor
Description: PARP1 levels in a limited selection of PDAC cell lines were determined using Western blot and confirmed by immunofluorescence microscopy. […] Uptake was reported as a percentage of the total amount added, per mg of total protein recovered from the isolated cells, determined by BCA assay. Specificity of uptake was determined by blocking olaparib binding sites using an excess of cold, unlabeled olaparib, or other PARP inhibitors (rucaparib, talazoparib).
Cell uptake of ^18F-olaparib in Panc-1, MiaPaCa-2 and Capan-1 cells was determined as previously described (Cornelissen, B., Hu, M., McLarty, K., Costantini, D. & Reilly, R. M.
Cellular penetration and nuclear importation properties of 111In-labeled and 123I-labeled HIV-1 tat peptide immunoconjugates in BT-474 human breast cancer cells. Nucl Med Biol 34, 37-46, 2007; Thurber, G. M., Reiner, T., Yang, K. S., Kohler, R. H. & Weissleder, R. Effect of small-molecule modification on single-cell pharmacokinetics of PARP inhibitors. Molecular cancer therapeutics 13, 986-995, 2014; Reiner, T., et al. Imaging therapeutic PARP inhibition in vivo through bioorthogonally developed companion imaging agents. Neoplasia 14, 169-177, 2012). Aliquots of Panc-1, MiaPaca-2, and Capan-1 cells (1.5×10^5 cells/well) were seeded in 24-well plates in warm cell culture medium (500 μL) and the cells were allowed to adhere overnight. Cells were irradiated (10 Gy; dose rate 0.8 Gy/min) or sham-irradiated and then returned to an incubator (37° C., 5% CO2) for 2 h. […] In the blocking groups, non-radioactive olaparib, talazoparib, or rucaparib were also added in increasing concentrations (10 pM-10 μM. After 30 or 60 minutes, the cell culture medium was removed and combined with two washes (500 μL) of cell culture medium. The remaining monolayer of cells was then lysed with 0.1 M sodium hydroxide for 20 minutes at room temperature. The amount of radioactivity contained within the cell culture medium and the cell lysate fractions was measured using a gamma counter. Protein levels from parallel plates were quantified using a Pierce BCA protein assay kit (Thermo Scientific) according to the manufacturer's recommendations and bovine serum albumin was used as the protein standard. Cell uptake levels of [^18F]-olaparib were normalised to percent of the total added radioactivity per milligram protein. […] IC50 values were calculated using GraphPad Prism software (GraphPad Software, San Diego, CA, USA). […]
Aliquots of Panc-1, MiaPaca-2, and Capan-1 cells (7.5×10^4 cells/well) were seeded in 24-well plates in warm cell culture medium (500 μL). […] The amount of radioactivity contained within the cell culture medium and the cell lysate fractions was measured using a gamma counter. […]

[2] = female mice, intravenous bolus 20 mg/kg; cited from earlier work

O=C(c1cc(Cc2n[nH]c(=O)c3ccccc23)ccc1F)N1CCN(C(=O)C2CC2)CC1 [Compound 1, 4-(3-(4-(cyclopropanecabonyl)piperazine-1-carbnonyl)-4-fluorobenzyl)phthalazin-1(2H)-one]
blocking of ^18F-olaparib uptake in vitro (U87MG and U251MG cells): ~70% | blocking of ^18F-olaparib tumour uptake in vivo [1]: ~75% | blocking of [^18F]olaparib uptake by excess PARP inhibitor (PANC-1 cells): could be blocked | previously reported half-life [2]: 58 min

CNCc1ccc(-c2[nH]c3cc(F)cc4c3c2CCNC4=O)cc1 [rucaparib]
blocking of [^18F]olaparib uptake by excess PARP inhibitor (PANC-1 cells): could be blocked

Cn1ncnc1[C@H]1c2n[nH]c(=O)c3cc(F)cc(c23)N[C@@H]1c1ccc(F)cc1 [talazoparib]
blocking of [^18F]olaparib uptake by excess PARP inhibitor (PANC-1 cells): could be blocked
